Measurements published in ChEMBL document CHEMBL1201862, “PubChem BioAssay data set” (2004).
Calls of active or inactive are those of the source.

Key:
[1] = molecular target: T1, Histone-lysine N-methyltransferase NSD2 (Homo sapiens, UniProt O96028); type: biochemical
T1 sequence (O96028 whole entry): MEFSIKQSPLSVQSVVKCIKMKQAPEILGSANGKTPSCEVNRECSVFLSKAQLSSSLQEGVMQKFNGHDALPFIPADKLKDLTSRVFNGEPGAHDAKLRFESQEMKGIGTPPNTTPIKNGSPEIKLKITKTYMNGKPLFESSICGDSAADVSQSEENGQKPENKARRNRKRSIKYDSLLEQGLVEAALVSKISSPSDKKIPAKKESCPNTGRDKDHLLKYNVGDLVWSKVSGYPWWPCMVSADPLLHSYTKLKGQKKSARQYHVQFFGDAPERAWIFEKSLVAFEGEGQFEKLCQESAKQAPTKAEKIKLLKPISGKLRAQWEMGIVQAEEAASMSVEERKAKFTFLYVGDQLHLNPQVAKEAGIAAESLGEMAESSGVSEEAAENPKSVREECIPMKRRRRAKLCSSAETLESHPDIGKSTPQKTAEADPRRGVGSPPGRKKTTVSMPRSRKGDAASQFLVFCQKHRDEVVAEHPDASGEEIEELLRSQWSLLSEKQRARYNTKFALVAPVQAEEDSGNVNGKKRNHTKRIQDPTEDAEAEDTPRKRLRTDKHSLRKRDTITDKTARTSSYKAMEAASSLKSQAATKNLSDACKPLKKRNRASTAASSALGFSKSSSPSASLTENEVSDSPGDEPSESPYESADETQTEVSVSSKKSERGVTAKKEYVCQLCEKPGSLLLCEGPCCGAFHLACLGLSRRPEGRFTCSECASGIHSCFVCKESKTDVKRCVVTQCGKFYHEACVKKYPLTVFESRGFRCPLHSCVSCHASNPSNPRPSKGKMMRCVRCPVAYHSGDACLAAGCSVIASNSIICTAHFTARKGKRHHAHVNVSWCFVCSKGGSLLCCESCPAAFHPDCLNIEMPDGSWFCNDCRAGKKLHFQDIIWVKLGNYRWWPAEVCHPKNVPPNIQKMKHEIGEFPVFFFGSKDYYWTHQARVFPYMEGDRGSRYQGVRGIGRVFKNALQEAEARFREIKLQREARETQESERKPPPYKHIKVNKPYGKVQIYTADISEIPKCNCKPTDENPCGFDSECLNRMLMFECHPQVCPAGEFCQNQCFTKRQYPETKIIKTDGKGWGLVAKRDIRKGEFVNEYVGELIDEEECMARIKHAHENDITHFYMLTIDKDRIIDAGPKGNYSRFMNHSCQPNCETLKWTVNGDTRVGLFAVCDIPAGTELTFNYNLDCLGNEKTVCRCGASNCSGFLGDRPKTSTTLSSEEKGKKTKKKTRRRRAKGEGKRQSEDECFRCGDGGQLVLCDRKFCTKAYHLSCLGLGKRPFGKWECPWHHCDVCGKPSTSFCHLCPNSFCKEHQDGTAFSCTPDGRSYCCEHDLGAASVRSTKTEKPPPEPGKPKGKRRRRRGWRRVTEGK

[2] = molecular target: DNA (cytosine-5)-methyltransferase 1 (Homo sapiens, UniProt P26358); assay: inhibition of DNA methylation by DNMT1 – biochemical, fluorescent molecular beacon, confirmation (AID 602386); type: functional
[3] = molecular target: 72 kDa type IV collagenase (Homo sapiens, UniProt P08253); assay: Dose Response validation of uHTS RPN11 inhibitor hits using a MMP-2 Fluorescence assay.; type: functional
Prothrombin = Prothrombin (Bos taurus, UniProt P00735); assay: thrombin protease inhibitors – biochemical, fluorescence polarization, uHTS hits, dose response (AID 602369); type: functional
Aminopeptidase N = molecular target: T2, Aminopeptidase N (Plasmodium falciparum FcB1/Columbia, UniProt O96935); assay: malaria alanyl aminopeptidase activity blockers – biochemical, fluorogenic H-Leu-NHMec substrate, 1536-well (AID 1445); set-up: species or system Plasmodium falciparum 3D7, 3D7
T2 sequence (O96935 whole entry): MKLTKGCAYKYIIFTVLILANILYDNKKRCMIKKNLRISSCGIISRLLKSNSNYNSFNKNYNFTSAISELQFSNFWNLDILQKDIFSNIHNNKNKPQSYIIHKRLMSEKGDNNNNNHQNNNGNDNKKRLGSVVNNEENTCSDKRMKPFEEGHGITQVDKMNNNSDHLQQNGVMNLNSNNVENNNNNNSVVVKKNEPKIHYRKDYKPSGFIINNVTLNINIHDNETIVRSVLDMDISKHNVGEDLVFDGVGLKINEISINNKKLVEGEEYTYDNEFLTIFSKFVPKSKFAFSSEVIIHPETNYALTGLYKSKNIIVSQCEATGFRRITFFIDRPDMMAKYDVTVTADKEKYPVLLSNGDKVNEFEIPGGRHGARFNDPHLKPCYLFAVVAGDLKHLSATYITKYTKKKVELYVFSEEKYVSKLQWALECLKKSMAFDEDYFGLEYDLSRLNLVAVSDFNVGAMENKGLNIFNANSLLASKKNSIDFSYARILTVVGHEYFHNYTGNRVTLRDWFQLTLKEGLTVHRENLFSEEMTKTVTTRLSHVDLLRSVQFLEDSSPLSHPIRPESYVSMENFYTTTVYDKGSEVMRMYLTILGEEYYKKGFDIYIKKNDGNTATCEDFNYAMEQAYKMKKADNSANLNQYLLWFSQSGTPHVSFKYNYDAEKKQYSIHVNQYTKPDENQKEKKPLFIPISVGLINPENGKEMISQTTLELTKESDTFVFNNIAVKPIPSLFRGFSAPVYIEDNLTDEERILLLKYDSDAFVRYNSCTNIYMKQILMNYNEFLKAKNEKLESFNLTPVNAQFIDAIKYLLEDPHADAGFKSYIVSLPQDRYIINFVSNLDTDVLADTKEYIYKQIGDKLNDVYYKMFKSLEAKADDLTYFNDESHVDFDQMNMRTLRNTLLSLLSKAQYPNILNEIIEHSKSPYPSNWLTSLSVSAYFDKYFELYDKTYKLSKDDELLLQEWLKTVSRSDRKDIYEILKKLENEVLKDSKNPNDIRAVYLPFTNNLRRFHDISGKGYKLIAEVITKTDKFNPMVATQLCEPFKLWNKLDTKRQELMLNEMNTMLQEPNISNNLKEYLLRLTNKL

[4] = molecular target: 26S proteasome non-ATPase regulatory subunit 14 (Homo sapiens, UniProt O00487); assay: inhibition of proteasome subunit RPN11 – biochemical, fluorescence polarization, uHTS hits, confirmation (AID 602368); type: functional
[5] = molecular target: T3, Rac GTPase-activating protein 1 (Homo sapiens, UniProt Q9H0H5); assay: blockers of MgcRacGAP-driven Rac1 GTP hydrolysis – biochemical, ADP Hunter fluorescence, primary and confirmatory, confirmation (AID 624330); type: functional
T3 sequence (Q9H0H5 whole entry): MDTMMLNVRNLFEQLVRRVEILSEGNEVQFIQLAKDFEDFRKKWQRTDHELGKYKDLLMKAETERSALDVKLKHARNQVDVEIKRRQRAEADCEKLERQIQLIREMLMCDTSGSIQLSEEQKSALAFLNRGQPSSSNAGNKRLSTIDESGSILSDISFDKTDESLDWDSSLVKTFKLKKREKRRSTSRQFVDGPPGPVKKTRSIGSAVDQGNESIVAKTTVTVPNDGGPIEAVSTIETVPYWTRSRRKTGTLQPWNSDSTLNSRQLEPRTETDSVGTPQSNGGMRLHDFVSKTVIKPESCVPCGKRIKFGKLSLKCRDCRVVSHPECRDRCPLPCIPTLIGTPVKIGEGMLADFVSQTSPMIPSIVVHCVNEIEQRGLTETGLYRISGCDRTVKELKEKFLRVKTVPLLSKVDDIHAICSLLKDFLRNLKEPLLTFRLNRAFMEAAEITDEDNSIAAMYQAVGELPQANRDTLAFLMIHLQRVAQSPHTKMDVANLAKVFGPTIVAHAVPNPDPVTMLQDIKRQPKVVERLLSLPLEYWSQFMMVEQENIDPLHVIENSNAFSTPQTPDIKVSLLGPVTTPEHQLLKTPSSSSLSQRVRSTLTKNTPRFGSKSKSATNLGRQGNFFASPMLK

[6] = molecular target: Induced myeloid leukemia cell differentiation protein Mcl-1 (Homo sapiens, UniProt Q07820); type: functional
[7] = molecular target: Bifunctional protein GlmU (Mycobacterium tuberculosis, UniProt P9WMN3); assay: Inhibitors of Mycobacterial Glucosamine-1-phosphate acetyl transferase (GlmU). Secondary screen.; set-up: species or system Mycobacterium tuberculosis H37Rv
[8] = fluconazole-exposed Candida albicans growth modulators – fluorescence, retest, confirmation (AID 2467); type: functional, cell-based
INS1 = assay: INS-1E survival protection against cytokine death – cell-based, luminescence, retest, dose response (AID 449756); type: functional; conditions: Rattus norvegicus;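 also: cell death triggered by IL-1 beta plus TNF-alpha plus IFN-gamma mixture; protective hits raise ATP signal compared with cytokine alone wells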
[9] = viability loss in Vero cells – cytotoxicity control for Vif-APOBEC3G degradation inhibitor project, dose response (AID 1117358); type: functional; conditions: Vero
Protein skinhead-1 = molecular target: T4, Protein skinhead-1 (Caenorhabditis elegans, UniProt P34707); type: functional
T4 sequence (P34707 whole entry): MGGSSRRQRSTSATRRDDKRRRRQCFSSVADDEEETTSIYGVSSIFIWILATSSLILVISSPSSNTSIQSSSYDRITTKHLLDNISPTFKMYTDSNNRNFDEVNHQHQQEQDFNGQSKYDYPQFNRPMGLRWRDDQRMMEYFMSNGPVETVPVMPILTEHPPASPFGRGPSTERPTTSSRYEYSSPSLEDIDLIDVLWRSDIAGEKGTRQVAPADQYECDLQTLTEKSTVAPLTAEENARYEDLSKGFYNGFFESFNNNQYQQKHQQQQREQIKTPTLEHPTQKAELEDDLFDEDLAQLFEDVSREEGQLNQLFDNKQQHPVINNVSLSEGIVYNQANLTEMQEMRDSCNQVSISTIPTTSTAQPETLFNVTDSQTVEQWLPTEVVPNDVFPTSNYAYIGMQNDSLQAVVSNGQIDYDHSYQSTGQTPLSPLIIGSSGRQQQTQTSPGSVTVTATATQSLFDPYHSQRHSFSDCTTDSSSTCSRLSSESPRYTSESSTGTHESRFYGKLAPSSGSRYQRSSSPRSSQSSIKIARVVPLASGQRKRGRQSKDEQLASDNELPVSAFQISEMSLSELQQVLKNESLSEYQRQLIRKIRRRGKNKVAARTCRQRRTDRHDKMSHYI

Jurkat = assay: blockers of NF-kB activation in T cells – Jurkat, luciferase reporter, luminescence, B- and T-cell, dose response (AID 489004); type: functional, cell-based; conditions: Homo sapiens;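 also: NF-kB luciferase reporter Jurkat cells stimulated with PMA plus ionomycin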
[10] = NIH-3T3 fibroblast cytotoxicity, dose response, cytotoxicity control, cell-based, fluorescence, Alamar Blue, secondary assay (AID 2327); type: functional;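 also: NIH-3T3 mouse fibroblasts cultured with fluconazole at 8 µg/mL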
[11] = HEK-293T viability loss, compound-treated – cell-based, uHTS hits, cytotoxicity control for B/T-cell NF-kB inhibitor project, dose response (AID 489019); type: functional;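 also: IC50 reflects cytotoxicity as loss of cell viability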
[12] = molecular target: Sphingosine 1-phosphate receptor 2 (Homo sapiens, UniProt O95136); assay: Dose Response Cell Based Assay for Antagonists of the S1P2 Receptor. [Related pubchem assays: 856, 736 ]; type: functional
[13] = molecular target: Signal transducer and activator of transcription 1-alpha/beta (Homo sapiens, UniProt P42224); assay: inhibition of STAT1 reporter activity – cell-based, NIH 3T3, luciferase reporter, dose response (AID 1396); type: functional
Chain of Signal transducer and activator of transcription 1-alpha/beta (P42224 whole entry): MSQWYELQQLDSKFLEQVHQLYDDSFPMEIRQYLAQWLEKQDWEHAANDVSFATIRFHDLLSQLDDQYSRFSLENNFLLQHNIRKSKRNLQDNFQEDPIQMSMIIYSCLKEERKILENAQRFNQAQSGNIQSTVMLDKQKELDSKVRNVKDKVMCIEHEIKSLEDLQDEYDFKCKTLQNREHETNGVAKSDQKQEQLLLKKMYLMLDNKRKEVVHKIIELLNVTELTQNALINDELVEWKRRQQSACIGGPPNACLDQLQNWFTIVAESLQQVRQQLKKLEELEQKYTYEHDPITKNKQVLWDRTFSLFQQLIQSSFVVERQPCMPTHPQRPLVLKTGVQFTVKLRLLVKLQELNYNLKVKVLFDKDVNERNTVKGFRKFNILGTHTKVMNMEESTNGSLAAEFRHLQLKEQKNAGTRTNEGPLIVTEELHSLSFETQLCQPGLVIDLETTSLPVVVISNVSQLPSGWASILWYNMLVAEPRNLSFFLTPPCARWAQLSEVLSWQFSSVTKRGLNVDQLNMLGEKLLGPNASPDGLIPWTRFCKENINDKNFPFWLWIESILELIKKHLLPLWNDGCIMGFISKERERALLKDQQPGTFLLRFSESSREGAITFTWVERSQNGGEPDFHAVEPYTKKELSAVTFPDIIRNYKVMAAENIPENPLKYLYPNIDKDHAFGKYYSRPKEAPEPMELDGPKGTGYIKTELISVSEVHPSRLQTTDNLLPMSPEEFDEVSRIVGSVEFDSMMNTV

Chain of Sphingosine 1-phosphate receptor 2 (O95136 whole entry): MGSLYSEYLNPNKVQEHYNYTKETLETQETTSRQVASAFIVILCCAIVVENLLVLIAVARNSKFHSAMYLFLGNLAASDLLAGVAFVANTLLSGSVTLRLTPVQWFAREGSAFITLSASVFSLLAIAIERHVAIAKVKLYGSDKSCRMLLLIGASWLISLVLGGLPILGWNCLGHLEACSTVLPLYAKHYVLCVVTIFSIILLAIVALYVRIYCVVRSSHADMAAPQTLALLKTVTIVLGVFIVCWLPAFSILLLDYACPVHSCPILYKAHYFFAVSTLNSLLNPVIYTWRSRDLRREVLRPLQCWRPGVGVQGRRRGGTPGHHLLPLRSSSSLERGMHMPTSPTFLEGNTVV
Chain of DNA (cytosine-5)-methyltransferase 1 (P26358 whole entry): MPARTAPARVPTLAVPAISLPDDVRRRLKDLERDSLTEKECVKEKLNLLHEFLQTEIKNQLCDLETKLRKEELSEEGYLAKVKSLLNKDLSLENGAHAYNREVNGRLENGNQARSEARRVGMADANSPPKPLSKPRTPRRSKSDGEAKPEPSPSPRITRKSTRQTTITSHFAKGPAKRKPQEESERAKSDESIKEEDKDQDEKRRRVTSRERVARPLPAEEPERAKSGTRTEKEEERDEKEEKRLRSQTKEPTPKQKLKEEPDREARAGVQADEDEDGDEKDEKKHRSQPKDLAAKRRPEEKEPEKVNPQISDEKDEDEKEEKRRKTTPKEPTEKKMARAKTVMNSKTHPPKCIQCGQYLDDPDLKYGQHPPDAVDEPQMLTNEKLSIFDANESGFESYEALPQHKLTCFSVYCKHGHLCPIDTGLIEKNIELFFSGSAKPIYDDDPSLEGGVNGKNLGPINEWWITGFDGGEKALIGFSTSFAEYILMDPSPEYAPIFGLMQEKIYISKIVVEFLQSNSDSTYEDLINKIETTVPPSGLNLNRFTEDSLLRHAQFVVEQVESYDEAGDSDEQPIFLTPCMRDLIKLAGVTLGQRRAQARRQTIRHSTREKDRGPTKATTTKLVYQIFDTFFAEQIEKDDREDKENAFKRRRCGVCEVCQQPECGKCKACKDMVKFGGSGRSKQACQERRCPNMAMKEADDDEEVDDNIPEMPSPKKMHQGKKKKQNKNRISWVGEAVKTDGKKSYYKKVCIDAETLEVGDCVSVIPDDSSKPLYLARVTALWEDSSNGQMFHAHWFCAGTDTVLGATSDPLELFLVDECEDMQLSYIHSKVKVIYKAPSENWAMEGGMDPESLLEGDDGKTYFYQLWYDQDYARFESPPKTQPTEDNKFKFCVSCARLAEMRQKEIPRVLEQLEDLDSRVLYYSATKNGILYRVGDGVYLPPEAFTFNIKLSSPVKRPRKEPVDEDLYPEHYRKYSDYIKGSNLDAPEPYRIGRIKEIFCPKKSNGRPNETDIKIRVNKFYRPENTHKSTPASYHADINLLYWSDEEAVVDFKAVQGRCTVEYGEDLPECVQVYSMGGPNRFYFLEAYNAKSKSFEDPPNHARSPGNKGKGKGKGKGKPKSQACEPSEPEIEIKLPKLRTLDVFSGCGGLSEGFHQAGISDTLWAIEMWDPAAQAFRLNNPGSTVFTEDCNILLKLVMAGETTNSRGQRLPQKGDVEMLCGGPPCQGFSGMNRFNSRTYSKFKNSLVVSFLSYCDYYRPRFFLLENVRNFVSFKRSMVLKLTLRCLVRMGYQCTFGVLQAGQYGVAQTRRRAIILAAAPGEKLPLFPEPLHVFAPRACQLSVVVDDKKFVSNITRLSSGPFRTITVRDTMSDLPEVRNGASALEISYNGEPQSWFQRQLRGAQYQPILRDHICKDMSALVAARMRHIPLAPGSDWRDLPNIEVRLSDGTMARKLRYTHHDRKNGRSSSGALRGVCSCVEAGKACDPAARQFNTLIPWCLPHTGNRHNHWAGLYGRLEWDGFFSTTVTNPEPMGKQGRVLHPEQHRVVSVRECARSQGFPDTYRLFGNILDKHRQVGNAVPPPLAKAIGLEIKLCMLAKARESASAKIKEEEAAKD
Chain of 72 kDa type IV collagenase (P08253 whole entry): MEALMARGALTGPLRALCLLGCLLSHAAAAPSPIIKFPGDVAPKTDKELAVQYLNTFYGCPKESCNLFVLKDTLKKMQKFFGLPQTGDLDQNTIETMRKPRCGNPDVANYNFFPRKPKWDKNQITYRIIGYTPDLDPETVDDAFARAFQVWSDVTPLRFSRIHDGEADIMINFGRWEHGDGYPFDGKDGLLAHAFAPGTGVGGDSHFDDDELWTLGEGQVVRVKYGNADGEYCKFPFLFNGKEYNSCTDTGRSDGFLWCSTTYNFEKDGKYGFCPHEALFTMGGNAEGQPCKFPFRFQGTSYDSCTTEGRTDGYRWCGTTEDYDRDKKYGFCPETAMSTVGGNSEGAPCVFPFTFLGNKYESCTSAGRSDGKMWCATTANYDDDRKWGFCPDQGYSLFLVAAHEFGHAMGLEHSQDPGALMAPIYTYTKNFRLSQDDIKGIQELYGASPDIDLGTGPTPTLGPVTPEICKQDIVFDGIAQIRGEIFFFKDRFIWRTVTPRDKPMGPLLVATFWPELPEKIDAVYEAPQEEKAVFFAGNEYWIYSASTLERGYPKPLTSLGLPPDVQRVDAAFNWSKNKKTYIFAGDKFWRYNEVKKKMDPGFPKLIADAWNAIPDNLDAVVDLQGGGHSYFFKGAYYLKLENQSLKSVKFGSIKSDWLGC
Chain of Induced myeloid leukemia cell differentiation protein Mcl-1 (Q07820 whole entry): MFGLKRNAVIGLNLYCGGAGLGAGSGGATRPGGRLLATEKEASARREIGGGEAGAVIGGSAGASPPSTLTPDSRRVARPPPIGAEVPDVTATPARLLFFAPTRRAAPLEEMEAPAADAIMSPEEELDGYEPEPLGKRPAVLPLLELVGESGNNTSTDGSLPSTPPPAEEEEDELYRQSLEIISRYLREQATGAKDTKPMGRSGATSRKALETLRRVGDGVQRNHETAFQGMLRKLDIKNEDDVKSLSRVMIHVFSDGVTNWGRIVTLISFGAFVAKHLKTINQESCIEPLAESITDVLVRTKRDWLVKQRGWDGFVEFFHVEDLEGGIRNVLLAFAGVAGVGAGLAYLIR
Chain of 26S proteasome non-ATPase regulatory subunit 14 (O00487 whole entry): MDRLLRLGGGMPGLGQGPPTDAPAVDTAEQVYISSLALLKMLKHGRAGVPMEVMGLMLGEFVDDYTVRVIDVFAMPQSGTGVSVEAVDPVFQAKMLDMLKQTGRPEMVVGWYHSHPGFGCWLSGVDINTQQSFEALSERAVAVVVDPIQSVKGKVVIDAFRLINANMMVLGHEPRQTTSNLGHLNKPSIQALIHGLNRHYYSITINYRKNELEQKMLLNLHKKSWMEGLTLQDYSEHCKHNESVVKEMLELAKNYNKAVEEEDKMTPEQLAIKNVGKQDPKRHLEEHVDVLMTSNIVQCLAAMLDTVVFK
Chain of Bifunctional protein GlmU (P9WMN3 whole entry): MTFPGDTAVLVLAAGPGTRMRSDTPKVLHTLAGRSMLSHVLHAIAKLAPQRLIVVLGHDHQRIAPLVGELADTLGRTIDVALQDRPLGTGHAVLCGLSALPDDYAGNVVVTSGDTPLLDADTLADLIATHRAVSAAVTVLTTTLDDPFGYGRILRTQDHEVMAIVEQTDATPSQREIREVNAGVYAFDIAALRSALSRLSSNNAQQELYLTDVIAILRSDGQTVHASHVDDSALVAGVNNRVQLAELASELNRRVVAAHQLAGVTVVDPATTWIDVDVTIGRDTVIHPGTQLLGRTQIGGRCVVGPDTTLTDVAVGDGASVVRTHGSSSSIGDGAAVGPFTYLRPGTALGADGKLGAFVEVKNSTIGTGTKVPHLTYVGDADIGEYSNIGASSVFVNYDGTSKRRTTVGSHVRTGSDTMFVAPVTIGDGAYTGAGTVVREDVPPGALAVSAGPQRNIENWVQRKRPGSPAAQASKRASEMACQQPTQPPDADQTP

For CCS(=O)(=O)C1=NN2C(=N)/C(=C\c3ccc(SCc4ccco4)o3)C(=O)N=C2S1, the AC50 [1] was 7.62 µM (active), the IC50 [2] was 5.71 µM (active) and the IC50 [3] was 4.49 µM (active). For the same molecule, the IC50 (Prothrombin) was 28.5 µM (active), the IC50 (Aminopeptidase N) was 24.2 µM (active) and the IC50 [4] was 12 µM (active). The IC50 [5] was 132 µM (active), the IC50 [6] was 3.96 µM (active) and the IC50 [7] was 49.4 µM (active).

For CCCCCCCCNc1ncnc2ccccc12, the EC50 [8] was 3.26 µM (active), the AC50 (INS1) was 0.232 µM (active) and the CC50 [9] was > 40 µM (active). For the same molecule, the IC50 (Protein skinhead-1) was 33 µM (active), the IC50 (Jurkat) was > 80 µM (inactive) and the EC50 [10] was > 160 µM (inactive). For the same molecule, the IC50 [11] was > 80 µM (inactive) and the IC50 [12] was 1.23 µM (active).

With CCOC(=O)C(/C=N/c1cc(C)nn1-c1ccccc1)=C(/O)OCC the IC50 [13] was 6.37 µM (active).
